One assay concerns the target T1, Cathepsin K (Homo sapiens, UniProt P43235).
T1 sequence (P43235 115-329): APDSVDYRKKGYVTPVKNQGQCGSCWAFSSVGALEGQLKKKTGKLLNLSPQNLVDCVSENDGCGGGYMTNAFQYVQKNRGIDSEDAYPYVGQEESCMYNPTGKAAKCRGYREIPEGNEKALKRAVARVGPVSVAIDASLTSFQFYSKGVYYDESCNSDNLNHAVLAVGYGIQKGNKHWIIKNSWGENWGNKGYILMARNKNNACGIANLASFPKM
The assay can be described thus: Study of Cathepsin K inhibition (fluorescence, Z-Val-arg-AMC). In kind it is biochemical.
Conditions: not given
On the procedure: Study of Cathepsin K Inhibition:
The products to be tested (10 mM) are diluted to […] in DMSO and distributed into Nunc polystyrene 96 well plates at a rate of 2 μl per well. Column 12 of the plate is reserved for the controls and therefore receives […] of DMSO (without products) per well. The plates are stored at −80° C. and thawed on the day of the experiment.
The products are diluted to 50 μM by adding 38 μl of reaction buffer: sodium acetate 100 mM, EDTA 5 mM, DTT […] pH 5.5. The addition as well as all the operations by pipette are carried out with a CybiWell 96 tip pipette. After mixing the solutions, each product is transferred into 2 wells (duplicates) of a Greiner black 384 well plate at a rate of 10 μl per well. Two 96-well plates can therefore be tested in a 384-well plate.
A solution of substrate at 50 μM, Z-Val-arg-AMC (Calbiochem), is prepared in the reaction buffer. The substrate, is then distributed into all the wells of the 384-well plate (20 μl per well).
A solution of Cathepsin K at 12.5 ng/ml is prepared in the reaction buffer and distributed into all the wells of the 384-well plate (20 μl per well) except for the 16 wells serving as 100% inhibition controls (column 23 and 24, lines I to P) which receive 20 μl of enzyme-free buffer.
The plates are then incubated 2H at ambient temperature, then read on Fluoroskan (Labsystems): excitation 390 nm; emission 460 nm
The final concentrations of each of the reagents are: products 10 μM, substrate 20 μM, enzyme 5 ng/ml.
The % inhibition for each of the products is calculated by using points at 0 and 100% inhibition of each plate as references. The products presenting a significant inhibition are then retested on a range of concentrations from 50 to 0.5 μM to determine an IC50.
`C=CCOC(=O)CC[C@H](NC(=O)[C@@H]1CCCN2C(=O)CC[C@H](NS(=O)(=O)c3ccc4ccccc4c3)C(=O)N12)C(=O)CN1CCN(CC(=O)N2CCCC2)CC1` [Example 117] registered a half-maximal inhibitory concentration (IC50) of 7 µM.

Staying with this assay, now noted: printed beside 20 μM; meaning not explained.
On to `C=CCOC(=O)CC[C@H](NC(=O)[C@@H]1CCCN2C(=O)CCC[C@H](NC(=O)Nc3ccc(Oc4ccccc4)cc3)C(=O)N12)C(=O)COC(C)=O` [Example 133], for which the “Cathepsin K, percentage in parentheses beside IC50 value (% inhibition)” value amounted to 25%.

The same assay, now with this note: substrate Z-Val-arg-AMC 20 μM, enzyme 5 ng/ml, 2H at ambient temperature; read-out: Cathepsin K IC50.
For the compound `C=CCOC(=O)CC[C@H](NC(=O)[C@@H]1CCCN2C(=O)CC[C@H](NC(=O)C(C)C)C(=O)N12)C(=O)C=[N+]=[N-]` [Example 38, (2-propenyl)(4S)6-diazo-4-[[[(1S,9S)-9-[(2-methyl-1-oxo-propyl)amino]-octahydro-6,10-dioxo-6H-pyridazino[1,2-a][1,2]diazepine-1-yl]carbonyl]amino]-5-oxo-hexanoate], the concentration for half-maximal inhibition (IC50) came out at 5 µM.

For `C=CCOC(=O)CC[C@H](NC(=O)[C@@H]1CCCN2C(=O)CC[C@H](NC(=O)c3cccc(OC)c3)C(=O)N12)C(=O)C=[N+]=[N-]` [Example 39, (2-propenyl)(4S)6-diazo-4-[[[(1S,9S)-9-[(3-methoxybenzoyl)amino]-octahydro-6,10-dioxo-6H-pyridazino[1,2-a][1,2]diazepine-1-yl]carbonyl]amino]-5-oxo-hexanoate], the IC50 amounted to 3 µM.

Take `C=CCOC(=O)CC[C@H](NC(=O)[C@@H]1CCCN2C(=O)CC[C@H](NC(=O)c3ccco3)C(=O)N12)C(=O)C=[N+]=[N-]` [Example 40, (2-propenyl)(4S)6-diazo-4-[[[(1S,9S)-9-[[(2-furanyl)carbonyl]amino]-octahydro-6,10-dioxo-6H-pyridazino[1,2-a][1,2]diazepine-1-yl]carbonyl]amino]-5-oxo-hexanoate]: the IC50 worked out at 1.8 µM.

Turning to `C=CCOC(=O)CC[C@H](NC(=O)[C@@H]1CCCN2C(=O)CC[C@H](NC(=O)NC3CCCCC3)C(=O)N12)C(=O)C=[N+]=[N-]` [Example 42, (2-propenyl)(4S)6-diazo-4-[[[(1S,9S)-9-[[(cyclohexylamino)carbonyl]amino]-octahydro-6,10-dioxo-6H-pyridazino[1,2-a][1,2]diazepine-1-yl]carbonyl]amino]-5-oxo-hexanoate], the half-inhibitory concentration (IC50) is 4 µM.

For `C=CCOC(=O)CC[C@H](NC(=O)[C@@H]1CCCN2C(=O)CC[C@H](NS(C)(=O)=O)C(=O)N12)C(=O)C=[N+]=[N-]` [Example 45, (2-propenyl)(4S)6-diazo-4-[[[(1S,9S)-9-[(methylsulphonyl)amino]-octahydro-6,10-dioxo-6H-pyridazino[1,2-a][l,2]diazepine-1-yl]carbonyl]amino]-5-oxo-hexanoate], the IC50 turned out to be 0.9 µM.

For the compound `C=CCOC(=O)CC[C@H](NC(=O)[C@@H]1CCCN2C(=O)CC[C@H](NS(=O)(=O)c3ccc(C(F)(F)F)cc3)C(=O)N12)C(=O)C=[N+]=[N-]` [Example 46, (2-propenyl)(4S)6-diazo-4-[[[(1S,9S)-9-[[[4-(trifluoromethyl)phenyl]sulphonyl]amino]-octahydro-6,10-dioxo-6H-pyridazino[1,2-a][1,2]diazepine-1-yl]carbonyl]amino]-5-oxo-hexanoate], the IC50 amounted to 6 µM.

Consider `C=CCOC(=O)CC[C@H](NC(=O)[C@@H]1CCCN2C(=O)CC[C@H](NS(=O)(=O)c3ccc4ccccc4c3)C(=O)N12)C(=O)C=[N+]=[N-]` [Example 47, (2-propenyl)(4S)6-diazo-4-[[[(1S,9S)-9-[[(2-naphthalenyl)sulphonyl]amino]-octahydro-6,10-dioxo-6H-pyridazino[1,2-a][1,2]diazepine-1-yl]carbonyl]amino]-5-oxo-hexanoate], for which the IC50 was 5 µM.

Consider `C=CCOC(=O)CC[C@H](NC(=O)[C@@H]1CCCN2C(=O)CC[C@H](NS(=O)(=O)c3ccc(C(F)(F)F)cc3)C(=O)N12)C(=O)CN1CCN(CC(=O)N2CCCC2)CC1` [Example 107], for which the IC50 worked out at 20 µM.

As to `C=CCOC(=O)CC[C@H](NC(=O)[C@@H]1CCCN2C(=O)CCC[C@H](NC(=O)Nc3ccc(Oc4ccccc4)cc3)C(=O)N12)C(=O)COC(C)=O` [Example 133], the IC50 was determined as 20 µM.

On to `C=CCOC(=O)CCC(NC(=O)C1CCCN2C(=O)CCC(NC(=O)NCCc3cccs3)C(=O)N12)C(=O)CSc1nnnn1-c1ccccc1` [Example 138, (2-propenyl)(4S)6-[(1-phenyl-1H-tetrazol-5-yl)thio]-4-[[[(1S,9S)-^9-[[[[^2-(thien-2-yl)-ethyl]amino]carbonyl]amino]-octahydro-6,10-dioxo-6H-pyridazino[1,2-a][1,2]diazepine-1-yl]carbonyl]amino]-5-oxo-hexanoate], for which the IC50 turned out to be 29 µM.

As for `[N-]=[N+]=CC(=O)[C@H](Cc1ccccc1)NC(=O)[C@@H]1CCCN2C(=O)CC[C@H](NC(=O)NCCc3cccs3)C(=O)N12` [Example 162], the IC50 amounted to 20 µM.

As for `[N-]=[N+]=CC(=O)[C@H](Cc1ccccc1)NC(=O)[C@@H]1CCCN2C(=O)CC[C@H](NS(=O)(=O)c3ccc4ccccc4c3)C(=O)N12` [Example 165, 9-[(9S)-[(2-naphthalenyl)sulphonyl]amino]-N-( (2S)-4-diazo-1-phenyl-3-oxo-2-butyl)-octahydro-6,10-dioxo-6H-(1S)-pyridazino[1,2-a][1,2]diazepine-1-carboxamide], the IC50 is 20 µM.

Regarding `C[C@H](NC(=O)[C@@H]1CCCN2C(=O)CC[C@H](NC(=O)Nc3ccc(Oc4ccccc4)cc3)C(=O)N12)C(=O)C=[N+]=[N-]` [Example 171, 9-[(9S)-[[(4-phenoxyphenyl)amino]carbonyl]amino]-N-((2S)-4-diazo-3-oxo-2-butyl)-octahydro-6,10-dioxo-6H-(1S)-pyridazino[1,2-a][1,2]diazepine-1-carboxamide], the IC50 worked out at 8 µM.

`O=C(Nc1ccc(Oc2ccccc2)cc1)N[C@H]1CCC(=O)N2CCC[C@@H](C(=O)N[C@@H](Cc3ccccc3)C(=O)CN3CCC(Cc4ccccc4)CC3)N2C1=O` [Example 218, 9-[(9S)-[[(4-phenoxyphenyl)amino]carbonyl]amino]-N-[(2S)-4-[(4-phenylmethyl)-1-piperidinyl]-1-phenyl-3-oxo-2-butyl]-octahydro-6,10-dioxo-6H-(1S)-pyridazino[1,2-a][1,2]diazepine-1-carboxamide]: the IC50 stood at 20 µM.

Turning to `CC(C)C[C@H](NC(=O)[C@@H]1CCCN2C(=O)CC[C@H](NC(=O)C(C)C)C(=O)N12)C(=O)C=[N+]=[N-]` [Example 339, 9-[(9S)-(2-methyl-1-oxo-propyl)amino]-N-((3S)-1-diazo-5-methyl-2-oxo-3-hexyl)-octahydro-6,10-dioxo-6H-(1S)-pyridazino[1,2-a][1,2]diazepine-1-carboxamide], the half-maximal inhibitory concentration (IC50) was determined as 10 µM.

In the case of `COc1cccc(C(=O)N[C@H]2CCC(=O)N3CCC[C@@H](C(=O)N[C@@H](CC(C)C)C(=O)C=[N+]=[N-])N3C2=O)c1` [Example 340, 9-[(9S)-(3-methoxybenzoyl)amino]-N-((3S)-1-diazo-5-methyl-2-oxo-3-hexyl)-octahydro-6,10-dioxo-6H-(1S)-pyridazino[1,2-a][1,2]diazepine-1-carboxamide], the half-maximal inhibitory concentration (IC50) worked out at 7 µM.

Take `CC(C)C[C@H](NC(=O)[C@@H]1CCCN2C(=O)CC[C@H](NC(=O)c3ccco3)C(=O)N12)C(=O)C=[N+]=[N-]` [Example 341, 9-[(9S)-[(2-furanyl)carbonyl]amino]-N-((3S)-1-diazo-5-methyl-2-oxo-3-hexyl)-octahydro-6,10-dioxo-6H-(1S)-pyridazino[1,2-a][1,2]diazepine-1-carboxamide]: the IC50 is 8 µM.

For the compound `CC(C)C[C@H](NC(=O)[C@@H]1CCCN2C(=O)CC[C@H](NC(=O)NC3CCCCC3)C(=O)N12)C(=O)C=[N+]=[N-]` [Example 343, 9-[(9S)-[(cyclohexylamino)carbonyl]amino]-N-((3S)-1-diazo-5-methyl-2-oxo-3-hexyl)-octahydro-6,10-dioxo-6H-(1S)-pyridazino[1,2-a][1,2]diazepine-1-carboxamide], the IC50 stood at 14 µM.

For the compound `CC(C)C[C@H](NC(=O)[C@@H]1CCCN2C(=O)CC[C@H](NC(=O)Nc3ccc(Oc4ccccc4)cc3)C(=O)N12)C(=O)C=[N+]=[N-]` [Example 344, 9-[(9S)-[[(4-phenoxyphenyl)amino]carbonyl]amino]-N-((3S)-1-diazo-5-methyl-2-oxo-3-hexyl)-octahydro-6,10-dioxo-6H-(1S)-pyridazino[1,2-a][1,2]diazepine-1-carboxamide], the IC50 is 5 µM.

With `CC(C)C[C@H](NC(=O)[C@@H]1CCCN2C(=O)CC[C@H](NC(=O)NCCc3cccs3)C(=O)N12)C(=O)C=[N+]=[N-]` [Example 345, 9-[(9S)-[[[2-(thien-2-yl)-ethyl]amino]carbonyl]amino]-N-((3S)-1-diazo-5-methyl-2-oxo-3-hexyl)-octahydro-6,10-dioxo-6H-(1S)-pyridazino[1,2-a][1,2]diazepine-1-carboxamide], the IC50 came out at 5 µM.

For orientation: IC50 means the concentration at which inhibition is half-maximal.

The values are drawn from patent publication US20030100550A1, “Carboxamide diazepin derivatives, preparation method, use as medicines, pharmaceutical compositions and use thereof” (priority 2002, published 2003).
